Data as given in ChEMBL document CHEMBL1130475 (Bioorg Med Chem Lett, 1997).

Tests used:
[1] = Ability to promote neurite outgrowth against freshly isolated sensory neuronal cultures; assay type: functional; conditions: Gallus gallus; read-out: ED50 (the source's name)
FK506 binding protein 12 = FK506 binding protein 12 (Gallus gallus, UniProt Q8QGU2); test: Inhibition of binding to FKBP12 receptor
[2] = Tested for its ability to inhibit calcineurin phosphatase activity in standard in vitro assay; NI means no inhibition at >10 uM; assay type: functional
T-cell = test: Tested for its ability to block T-cell proliferation in standard in vitro assay; NI means no inhibition at >10 uM; assay type: functional, cell-based

FK506 binding protein 12, sequence (Q8QGU2 whole entry): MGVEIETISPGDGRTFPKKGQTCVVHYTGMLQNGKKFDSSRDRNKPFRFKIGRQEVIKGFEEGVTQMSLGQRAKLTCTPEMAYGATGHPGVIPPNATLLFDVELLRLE

| SMILES | EC50 [1] [nM] | Ki (FK506 binding protein 12) [nM] | Activity [2] | Activity (T-cell) |
| --- | --- | --- | --- | --- |
| CCC(C)(C)C(=O)C(=O)N1CCCCC1C(=O)OC(CCCc1ccccc1)CCCc1ccccc1 (configuration not stated) | 5 | – | – | – |
| CCOC(=O)C1CCCCN1C(=O)C(=O)C(C)(C)CC (configuration not stated) | 5000 | 1300 | – | – |
| CC(C)(C)C(=O)C(=O)N1CCCCC1C(=O)OC(CCCc1ccccc1)CCCc1ccccc1 (configuration not stated) | 0.085 | – | – | – |
| CCC(C)(C)C(=O)C(=O)N1CCCCC1C(=O)OC(CCCc1ccccc1)CCc1ccc(OC)cc1 (configuration not stated) | 0.17 | 15 | – | – |
| CC(C)(C)C(=O)C(=O)N1CCCCC1C(=O)OCCCc1ccccc1 (configuration not stated) | 0.085 | – | – | – |
| CCC(C)(C)C(=O)C(=O)N1CCCCC1C(=O)OCCCc1cc(OC)c(OC)c(OC)c1 (configuration not stated) | 80 | 25 | No inhibition | No inhibition |
| COc1ccc(CCCCOC(=O)C2CCCCN2C(=O)C(=O)C(C)(C)C)cc1 (configuration not stated) | 0.002 | 24 | – | – |
| O=C(C(=O)N1CCCCC1C(=O)OC(CCCc1ccccc1)CCCc1ccccc1)c1ccccc1 (configuration not stated) | 0.15 | 3 | – | – |
| CCOC(=O)C1CCCCN1C(=O)C(=O)OC (configuration not stated) | > 10000 | > 10000 | – | – |
| CCC(C)(C)C(=O)C(=O)N1CCCCC1C(=O)OCCC(c1ccccc1)c1ccccc1 (configuration not stated) | 0.029 | 8.3 | – | – |
| COc1cc(C(=O)C(=O)N2CCCCC2C(=O)OC(CCCc2ccccc2)CCCc2ccccc2)cc(OC)c1OC (configuration not stated) | 0.61 | – | – | – |
| CCC(C)(C)C(=O)C(=O)N1CCCCC1C(=O)OC(CCc1ccccc1)CCc1ccccc1 (configuration not stated) | 0.016 | – | – | – |
| CCC(C)(C)C(=O)C(=O)N1CCCCC1C(=O)OCCCCc1ccc(OC)cc1 (configuration not stated) | 43 | 60 | – | – |
| CCC(C)(C)C(=O)C(=O)N1CCCCC1C(=O)OCCCc1ccccc1 (configuration not stated) | 300 | 250 | No inhibition | No inhibition |
